Here are results for 21 compounds from patent publication US10077237B2 (Sanofi, priority 2013, dated 2018).

For this experiment, the target named is T1, recombinant human AMPK complex, containing α2β1γ2 (Homo sapiens, UniProt P54646+Q9Y478).
T1 construct: hsAMPKα2-552-His, hsAMPKβ1-2-270 and hsAMPKγ-2-569 respectively; hsAMPKβ1-2-270; hsAMPKγ-2-569; His (C); made in house; host or cells: Spodoptera frugiperda Sf21 (baculovirus)
Kind of experiment: AMPK in vitro activation assay (HTRF). The conditions noted are these: for EC50: HTRF, recombinant human α2β1γ2 AMPK, 200 μM ATP, biotinylated ACC-CREBp peptide, repeat determinations on separate lines; for Emax: potentiation of AMPK activity as percent over the basal signal (without compound). In kind it is biochemical. A digest of the protocol:
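Sf21-expressed, Ni-NTA partially purified α2β1γ2 complex preincubated 30 min at room temperature with compound (0.5% DMSO) in HEPES pH 7.0, MgCl2, DTT. Reaction was started with a solution holding 200 μM ATP and 2 or 0.08 μM biotinylated ACC-CREBp peptide, run 45 min at 37° C, then read by HTRF with anti-pS133-CREB; EC50 from percent over basal.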

Where “and” joins values, the source holds several entries; their conditions need not be identical. Identical values can stand only once. Counter-ions that a name gives are not always drawn.

T1 sequence (P54646 2-552): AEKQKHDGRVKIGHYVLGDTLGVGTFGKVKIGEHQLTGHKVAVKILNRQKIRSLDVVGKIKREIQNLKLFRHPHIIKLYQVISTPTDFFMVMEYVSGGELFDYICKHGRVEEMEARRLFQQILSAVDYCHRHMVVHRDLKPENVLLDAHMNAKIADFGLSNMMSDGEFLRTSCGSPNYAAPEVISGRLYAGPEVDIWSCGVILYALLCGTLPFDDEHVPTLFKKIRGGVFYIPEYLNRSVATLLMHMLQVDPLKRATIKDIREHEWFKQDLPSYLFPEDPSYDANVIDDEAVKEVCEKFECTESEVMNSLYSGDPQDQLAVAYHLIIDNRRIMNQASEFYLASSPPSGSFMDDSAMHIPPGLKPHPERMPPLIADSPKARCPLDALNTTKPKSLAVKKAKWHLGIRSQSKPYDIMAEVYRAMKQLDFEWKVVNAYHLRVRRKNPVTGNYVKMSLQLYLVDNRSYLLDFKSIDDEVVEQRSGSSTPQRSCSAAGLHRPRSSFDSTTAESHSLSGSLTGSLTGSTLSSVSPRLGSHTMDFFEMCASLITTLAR
T1 sequence (Q9Y478 2-270): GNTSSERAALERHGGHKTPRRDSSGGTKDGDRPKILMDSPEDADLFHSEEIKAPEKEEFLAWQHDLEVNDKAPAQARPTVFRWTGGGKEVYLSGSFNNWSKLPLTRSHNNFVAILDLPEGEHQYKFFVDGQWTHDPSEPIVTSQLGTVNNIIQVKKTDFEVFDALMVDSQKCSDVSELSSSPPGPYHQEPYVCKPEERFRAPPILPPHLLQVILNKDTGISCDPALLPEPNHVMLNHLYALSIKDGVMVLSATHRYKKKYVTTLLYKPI
T1 sequence (Q9UGJ0 2-569 partner limits assumed): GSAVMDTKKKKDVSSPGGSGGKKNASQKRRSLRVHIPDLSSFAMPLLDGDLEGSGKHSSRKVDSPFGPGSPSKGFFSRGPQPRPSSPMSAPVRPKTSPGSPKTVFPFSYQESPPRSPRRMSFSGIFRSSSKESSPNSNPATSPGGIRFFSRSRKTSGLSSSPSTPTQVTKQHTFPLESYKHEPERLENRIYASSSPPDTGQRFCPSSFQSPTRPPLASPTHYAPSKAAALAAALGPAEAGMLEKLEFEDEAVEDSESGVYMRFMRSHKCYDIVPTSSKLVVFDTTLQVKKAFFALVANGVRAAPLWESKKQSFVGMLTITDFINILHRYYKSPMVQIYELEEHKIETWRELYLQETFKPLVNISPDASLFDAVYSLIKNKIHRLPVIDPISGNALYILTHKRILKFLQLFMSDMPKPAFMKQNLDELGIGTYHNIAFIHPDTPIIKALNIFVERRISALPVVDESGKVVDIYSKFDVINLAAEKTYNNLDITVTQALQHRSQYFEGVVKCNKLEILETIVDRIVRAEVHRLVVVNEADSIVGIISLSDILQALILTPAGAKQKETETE

As for `CC(C)(C)c1cc(C(O)=C2C(=O)Nc3cc(Cl)c(-c4ccc(N5CCOCC5)cc4)cc32)on1` [Compound 112, 3-[(3-tert-butylisoxazol-5-yl)-hydroxy-methylene]6-chloro-5-(4-morpholinophenyl)indolin-2-one], the EC50 stood at 13 nM and the maximal effect (Emax) worked out at 197%.

In the case of `O=C1Nc2cc(Cl)c(-c3ccc(C4(CO)CC4)cc3F)cc2C1=C(O)c1cc(C2CC2)no1` [Compound 113, 6-chloro-3-[(3-cyclopropylisoxazol-5-yl)hydroxy-methylene]-5-[2-fluoro-4-[1-(hydroxymethyl)cyclopropyl]phenyl]indolin-2-one], the 50% effective concentration (EC50) was determined as 0.6 nM and the Emax amounted to 126%.

For the compound `O=C1Nc2cc(Cl)c(-c3ccc(C4(CO)CC4)cc3)cc2C1=C(O)c1cccs1` [Compound 114, 6-chloro-5-[4-[1-(hydroxymethyl)cyclopropyl]phenyl]-3-[hydroxy(2-thienyl)methylene]indolin-2-one], the EC50 came out at 4 nM and the maximal effect (Emax) was found to be 143%.

For the compound `Cc1cc(C(O)=C2C(=O)Nc3cc(Cl)c(-c4ccc(OCC5CCO5)cc4)cc32)on1` (centres unmarked) [Compound 115, 6-chloro-3-[hydroxy-(3-methylisoxazol-5-yl)methylene]-5-[4-(oxetan-2-ylmethoxy)phenyl]indolin-2-one], the half-maximal effective concentration (EC50) turned out to be 30 nM and the Emax is 149%.

On to `COc1ccc(C(O)=C2C(=O)Nc3cc(Cl)c(-c4ccc(C5(CO)CC5)cc4)cc32)cn1` [Compound 116, 6-chloro-3-[hydroxy-(6-methoxy-3-pyridyl)methylene]-5-[4-[1-(hydroxymethyl)cyclopropyl]phenyl]indolin-2-one hydrochloride], for which the EC50 was 0.3 nM and 0.8 nM.

Consider `COc1cccc(-c2ccc(-c3cc4c(cc3Cl)NC(=O)C4=C(O)c3cc(C4CC4)no3)cc2)c1O` [Compound 117, 6-chloro-3-[(3-cyclopropylisoxazol-5-yl)hydroxy-methylene]-5-[4-(2-hydroxy-3-methoxy-phenyl)phenyl]indolin-2-one], for which the EC50 came to 0.1 nM and the Emax stood at 129%.

With `COc1cc(C(O)=C2C(=O)Nc3cc(F)c(-c4ccc(C5(CO)CC5)cc4)cc32)on1` [Compound 118, 6-fluoro-3-[hydroxy-(3-methoxyisoxazol-5-yl)methylene]-5-[4-[1-(hydroxymethyl)cyclopropyl]phenyl]indolin-2-one], the 50% effective concentration (EC50) was determined as 0.5 nM and the maximum response (Emax) turned out to be 133%.

As to `O=C1Nc2cc(F)c(-c3ccc(C4(CO)CC4)cc3)cc2C1=C(O)c1cc(C2CC2)no1` [Compound 119, 3-[(3-cyclopropylisoxazol-5-yl)hydroxy-methylene]6-fluoro-5-[4-[1-(hydroxymethyl)cyclopropyl]phenyl]indolin-2-one], the concentration giving a half-maximal response (EC50) was found to be 0.6 nM and the Emax came out at 133%.

Consider `O=C1Nc2cc(F)c(-c3ccc(C4(CO)CC4)cc3)c(F)c2C1=C(O)c1cc(C2CC2)no1` [Compound 120, 3-[(3-cyclopropylisoxazol-5-yl)hydroxy-methylene]-4,6-difluoro-5-[4-[1-(hydroxymethyl)cyclopropyl]phenyl]indolin-2-one], for which the concentration for a half-maximal effect (EC50) stood at 0.2 nM and the Emax is 169%.

As for `COc1cc(C(O)=C2C(=O)Nc3cc(Cl)c(-c4ccc(C(CO)CO)cc4)cc32)on1` [Compound 121, 6-chloro-5-[4-[2-hydroxy-1-(hydroxymethyl)ethyl]phenyl]-3-[hydroxy-(3-methoxyisoxazol-5-yl)methylene]indolin-2-one], the EC50 came to 4 nM and the maximal response (Emax) came to 172%.

`COc1cc(C(O)=C2C(=O)Nc3cc(Cl)c(-c4ccc(C(O)CO)cc4)cc32)on1` (centres unmarked) [Compound 122, 6-chloro-5-[4-(1,2-dihydroxyethyl)phenyl]-3-[hydroxy-(3-methoxyisoxazol-5-yl)methylene]indolin-2-one]: the EC50 is 7 nM and the maximum response (Emax) is 172%.

Take `Cc1ccc(C(O)=C2C(=O)Nc3cc(Cl)c(-c4ccc(C5(CO)CC5)cc4)cc32)s1` [Compound 123, 6-chloro-5-[4-[1-(hydroxymethyl)cyclopropyl]phenyl]-3-[hydroxy-(5-methyl-2-thienyl)methylene]indolin-2-one]: the 50% effective concentration (EC50) was 0.4 nM and the Emax turned out to be 272%.

As to `COc1cc(C(O)=C2C(=O)Nc3cc(Cl)c(-c4ccc(OC5CCN(C)CC5)cc4)cc32)on1` [Compound 124, 6-chloro-3-[hydroxy-(3-methoxyisoxazol-5-yl)methylene]-5-[4-[(1-methyl-4-piperidyl)oxy]phenyl]indolin-2-one hydrochloride], the 50% effective concentration (EC50) came to 25 nM and the Emax is 231%.

Turning to `COc1ccc(C(O)=C2C(=O)Nc3cc(F)c(-c4ccc(C5(CO)CC5)cc4)cc32)cc1F` [Compound 125, 6-fluoro-3-[(3-fluoro-4-methoxy-phenyl)hydroxy-methylene]-5-[4-[1-(hydroxymethyl)cyclopropyl]phenyl]indolin-2-one], the EC50 was 0.2 nM and the Emax was determined as 230%.

With `O=C1Nc2cc(Cl)c(-c3ccc(C4(CO)CC4)cc3)cc2C1=C(O)c1ccco1` [Compound 126, 6-chloro-3-[2-furyl(hydroxy)methylene]-5-[4-[1-(hydroxymethyl)cyclopropyl]phenyl]indolin-2-one], the EC50 is 0.3 nM and the Emax stood at 295%.

In the case of `COc1cc(C(O)=C2C(=O)Nc3cc(Cl)c(-c4ccc(N(C)C)cc4)cc32)on1` [Compound 127, 6-chloro-5-(4-dimethylaminophenyl)-3-[hydroxy-(3-methoxyisoxazol-5-yl)methylene]indolin-2-one], the Emax stood at 296%.

`COc1cc(C(O)=C2C(=O)Nc3cc(Cl)c(-c4ccc(OC5CCOCC5)cc4)cc32)on1` [Compound 128, 6-chloro-3-[hydroxy-(3-methoxyisoxazol-5-yl)methylene]-5-(4-tetrahydropyran-4-yloxyphenyl)indolin-2-one]: the EC50 is 52 nM and the maximal effect (Emax) stood at 288%.

For the compound `COc1cc(C(O)=C2C(=O)Nc3cc(Cl)c(-c4ccc(OCCCO)cc4)cc32)on1` [Compound 129, 6-chloro-3-[hydroxy-(3-methoxyisoxazol-5-yl)methylene]-5-[4-(3-hydroxypropoxy)phenyl]indolin-2-one], the half-maximal effective concentration (EC50) is 20 nM and 10 nM.

`O=C1Nc2cc(Cl)c(-c3ccc(C4(CO)CC4)cc3)cc2C1=C(O)c1ccc(Cl)s1` [Compound 130, 6-chloro-3-[(5-chloro-2-thienyl)hydroxy-methylene]-5-[4-[1-(hydroxymethyl)cyclopropyl]phenyl]indolin-2-one]: the EC50 amounted to 9 nM and the maximal effect (Emax) came out at 373%.

Take `COCCCOc1ccc(-c2cc3c(cc2Cl)NC(=O)C3=C(O)c2cc(OC)no2)cc1` [Compound 131, 6-chloro-3-[hydroxy-(3-methoxyisoxazol-5-yl)methylene]-5-[4-(3-methoxypropoxy)phenyl]indolin-2-one]: the half-maximal effective concentration (EC50) was 33 nM and 86 nM.

Turning to `Cc1cc(C(O)=C2C(=O)Nc3cc(Cl)c(-c4ccc(OCC5COC5)cc4)cc32)on1` [Compound 132, 6-chloro-3-[hydroxy-(3-methylisoxazol-5-yl)methylene]-5-[4-(oxetan-3-ylmethoxy)phenyl]indolin-2-one], the EC50 is 49 nM and the Emax was 364%.
